We go through 16 compounds from US4016176A, “Esters of 4-hydroxy-2,9-dioxatricyclo[4.3.1.0^3,7 ] decanes and processes for their production” (Kali-Chemie Pharma GmbH, priority 1973, dated 1977).

Series [1] concerns mouse. The series is described as follows: prolongation of narcosis produced by hexobarbital in mice. It is filed as in vivo. Conditions: for E - dose which prolongs narcosis produced by hexobarbital in a mouse by a factor of 4: factor of 4, Table 3; for prolongation of narcosis produced by hexobarbital (in words): comparison of epimers. From the text:
(§1) In the Table 3 which follows are listed results of tests pertaining to the effectiveness of various compounds that are disclosed herein.

Series [2] in a line: acute toxicity (LD50) in mice. In kind it is in vivo, mouse. To be noted: mouse, in vivo, mouse. From the text: (§2) In the Table 3 which follows are listed results of tests pertaining to the effectiveness of various compounds that are disclosed herein. The results are included in the several columns under letters whose significance is as follows:
(§3) A - lethal dose (LD50) to mice in milligrams per kilogram of body weight of the mouse when administered per os.
(§4) B - lethal dose (LD50) to mice in milligrams per kilogram of body weight of the mouse when administered intraperitoneally.
(§5) A. lethal dose (LD50) to mice in milligrams per kilogram body weight of the mouse when administered per os.
(§6) B. lethal dose (LD50) to mice in milligrams per kilogram body weight of the mouse administered intraperitoneally.
(§7) The values specified in Tables 4 and 5 hereinafter refer to milligrams per kilogram of body weight of the mouse.
(§8) Tests performed in accordance with the procedure described by Campbell and Richter in Acta Pharmacol. et Toxicol., vol. […] This is indicated by the results that are reported in Table 5 in which the headings A and F have the same significance as hereinbefore while the values in the column heading L pertain to the dose in milligrams per kilogram of body weight that was required to produce a lowering of the rectal temperature, which are values indicative of the depressant effect of a compound upon the central nervous system.

Series [3] concerns mouse. The series is described as follows: ataxia in mice. In kind it is in vivo. Conditions: for C - ataxia: dose required to produce ataxia in a mouse / minimal effective dose: Table 3; for minimal effective dose: Mus musculus, read-out: C - ataxia: dose required to produce ataxia in a mouse, mouse.
Description: as §2
C - ataxia: Dose in milligrams per kilogram of body weight required to produce ataxia in a mouse.

Series [4] concerns white mice. The series is described as follows: ptosis test (Campbell and Richter screening). To be noted: for F ptosis test: mouse, Table 5. It is filed as in vivo, mouse.
Description: (§9) The sedative and hypnotic effectiveness of the compounds of the invention were also ascertained by screening tests with white mice described by Campbell and Richter in Acta Pharmacol. et Toxicol. 25 (1967) page 345. In Table 4 the results of various specific screening tests are listed. These tests were as follows:
as §7, §8

Series [5] deals with mice. The series is described as follows: acute toxicity (LD50) in mice. In kind it is in vivo, mouse. To be noted: mouse; for B - lethal dose (LD50) to mice, intraperitoneally: intraperitoneal; for B - lethal dose (LD50) to mice, intraperitoneally / A - lethal dose (LD50) to mice, per os: Table 3.
Description: as §2, §3, §4, §5, §6, §7, §8

Series [6] deals with mice. The series is described as follows: narcosis (lateral position) in mice. It is filed as in vivo, mouse. Conditions: for ED50: ip, 0.05 h, read-out: D - narcosis (lateral position): dose (ED50) which produces narcosis for 3 minutes in 50% of the mice; for narcosis (in words): comparison of epimers.
Description: as §1

The test system of series [7] is mouse. The series is described as follows: lowering of the rectal temperature in mice. In kind it is in vivo. Conditions: for minimal effective dose: mouse, Table 5, read-out: L dose required to produce a lowering of the rectal temperature; for dose required to produce a lowering of the rectal temperature, relative to the 4-hydroxy compound (in words): compared with Compound No. 2090.
Description: as §7, §8

Series [8] has as its system white mice. The series is described as follows: balance bar test (Campbell and Richter screening). In kind it is in vivo. To be noted: mouse; Table 4; read-out: K. balance bar test (ED50).
Description: as §9
K. balance bar test (ED50).
as §7

Series [9] deals with white mice. The series is described as follows: climbing test (Campbell and Richter screening). It is filed as in vivo. Conditions: mouse; Table 4; read-out: J. climbing test (ED50).
Description: as §9, §7

Where [10] appears, read: ip, intraperitoneal, Table 3, read-out: B - lethal dose (LD50) to mice, intraperitoneally.
Where [11] appears, read: po, per os, Table 3, read-out: A - lethal dose (LD50) to mice, per os.
The mark [12] stands for this setting: po, per os, Table 5, read-out: A lethal dose (LD50) to mice, per os.
The mark [13] stands for this setting: mouse, intraperitoneal, narcosis for 3 minutes, Table 3.
[14] abbreviates: ip, intraperitoneal, Table 4, read-out: B. lethal dose (LD50) to mice, intraperitoneally.
Where [15] appears, read: po, per os, Table 4, read-out: A. lethal dose (LD50) to mice, per os.

Read-outs that look alike come from different tables or passages of the source.

With `C=C1C2OC(OC)C3C1CC(O)C3(C)O2` (stereo not drawn) [Compound No. 981, 4β-hydroxy-8-methoxy-3-methyl-10-methylene-2,9-dioxatricyclo[4.3.1.0^3,7]decane], the “E - dose which prolongs narcosis produced by hexobarbital in a mouse by a factor of 4” value (“E - dose which prolongs narcosis produced … of 4” below) in [1] was 100 milligrams per kilogram of bod. Also, the values for the LD50 in series [2] (setting [10]) and in series [2] (setting [11]) were 600 mg/kg and 610 mg/kg, respectively. In [3] (mouse), the “C - ataxia: dose required to produce ataxia in a mouse” value (from here on “C - ataxia: dose required”) was 200 milligrams per kilogram of bod.
Consider `COC1OC2OC3(C)C(O)CC(C2C)C13` (stereo not drawn) [Compound No. 1246, 4β-hydroxy-3,10-dimethyl-8-methoxy-2,9-dioxatricyclo[4.3.1.0^3,7]decane], for which, in [1], the “E - dose which prolongs narcosis produced … of 4” value is on record as 68 milligrams per kilogram of bod. The results for the LD50 in series [2] (setting [10]) and in series [2] (setting [11]) were 1200 mg/kg and > 1500 mg/kg, respectively. Besides, the “C - ataxia: dose required” value in series [3] (mouse) is 800 milligrams per kilogram of bod.
Consider `COC1OC2OC3(C)C(O)CC(C2C)C13` (stereo not drawn) [Compound No. 1561, 4α-Hydroxy-8-methoxy-3,10-dimethyl-2,9-dioxatricyclo[4.3.1.0^3,7]decane], for which the “E - dose which prolongs narcosis produced … of 4” value in series [1] is on record as 68 milligrams per kilogram of bod. Also, the F ptosis test in [4] is recorded as 100 milligrams per kilogram of bod. The LD50 in [2] (setting [12]) was > 1500 mg/kg. Also, in [5], the “B - lethal dose (LD50) to mice, intraperitoneally” value (“B - lethal dose (LD50) to mice” below) is 1600 milligrams per kilogram of bod and the “A - lethal dose (LD50) to mice, per os” value is > 1500 milligrams per kilogram of bod. In addition, in series [6] (Mus musculus), the ED50 came out at 800 mg/kg. For the same compound, the minimal effective dose in series [7] came to 100 mg/kg. Also, in [3] (mouse), the “C - ataxia: dose required” value is listed as 200 milligrams per kilogram of bod.
With `COC1OC2OC3(C)C(OC(=O)NC(C)C)CC(C2C)C13` (centres unmarked) [Compound No. 2065], in series [1], the “prolongation of narcosis produced by hexobarbital (in words)” value is on record as “prolongation of narcosis produced by hexobarbital” and the “E - dose which prolongs narcosis produced … of 4” value was 31.6 milligrams per kilogram of bod. Also, in series [5], the “B - lethal dose (LD50) to mice” value is 118 milligrams per kilogram of bod and the “A - lethal dose (LD50) to mice, per os” value is listed as 156 milligrams per kilogram of bod. For the same compound, the ED50 in series [6] (setting [13]) amounted to 46.4 mg/kg. In addition, the “narcosis (in words)” value in series [6] (mouse) was “produces a very strong narcosis”. Besides, the “ratio between effective and lethal doses (in words)” value in [3] (2065 versus 2057, ataxia) is “remains constant”. The “increase in effectiveness in producing ataxia” value in [3] (2065 versus epimer 2057) is recorded as “ten-fold increase in effectiveness”. In series [3] (mouse), the “dose required for producing ataxia” value is 12 milligrams per kilogram of body weight and the “C - ataxia: dose required” value is 12 milligrams per kilogram of bod.
As to `C=C1C2OC(OC)C3C1CC(OC(=O)NCC)C3(C)O2` (centres unmarked) [Compound No. 2067], in series [1], the “prolongation of narcosis produced by hexobarbital (in words)” value is reported as “prolongs narcosis produced by hexobarbital” and the “E - dose which prolongs narcosis produced … of 4” value is on record as 215 milligrams per kilogram of bod. In addition, the LD50 in series [2] (setting [10]) amounted to 390 mg/kg. In addition, the LD50 in series [2] (setting [11]) is 872 mg/kg. Further, in [5] (2067 versus 2076), the “toxicity of the epimers (in words)” value is “substantially the same toxicity”. Also, the “narcosis (in words)” value in series [6] (mouse) is reported as “does not produce narcosis”. For the same compound, in series [3], the minimal effective dose came to 50 mg/kg. The “doses effective in producing ataxia (in words)” value in [3] (mouse, 2067 versus 2076) is listed as “identical doses are effective in producing ataxia”.
Take `C=C1C2OC(OC)C3C1CC(O)C3(C)O2` (stereo not drawn) [Compound No. 2090, 4α-Hydroxy-8-methoxy-3-methyl-10-methylene-2,9-dioxatricyclo[4.3.1.0^3,7] decane]: the F ptosis test in series [4] was 100 milligrams per kilogram of bod. In [5], the “B - lethal dose (LD50) to mice” value is on record as 300 milligrams per kilogram of bod and the “A - lethal dose (LD50) to mice, per os” value is 774 milligrams per kilogram of bod. In [6] (Mus musculus), the ED50 was < 300 mg/kg. For the same compound, in series [7], the minimal effective dose was determined as 200 mg/kg. The “C - ataxia: dose required” value in [3] (mouse) is reported as 25 milligrams per kilogram of bod.
For `C=C1C2OC(OC)C3C1CC(OC(C)=O)C3(C)O2` (stereo not drawn) [Compound No. 2117, 4α-Acetoxy-8-methoxy-3-methyl-10-methylene-2,9-dioxatricyclo [4.3.1.0^3,7] decane], in series [4], the F ptosis test was 100 milligrams per kilogram of bod. In addition, the median lethal dose (LD50) in series [2] (setting [12]) was 774 mg/kg. In addition, in series [7], the “dose required to produce a lowering of the rectal temperature, relative to the 4-hydroxy compound (in words)” value is recorded as “smaller” and the minimal effective dose came to 50 mg/kg.
In the same order, the values of `C=C1C2OC(OC)C3C1CC(OC(=O)CC)C3(C)O2` (stereo not drawn) [Compound No. 2118, 4α-Propionyloxy-8-methoxy-3-methyl-10-methylene-2,9-dioxatricyclo[4.3.1.0^3,7]decane] are 100 milligrams per kilogram of bod, 1140 mg/kg, “smaller” and 100 mg/kg.
For `COC1OC2OC3(C)C(OC(=O)CC(C)C)CC(C2C)C13` (stereo not drawn) [Compound No. 2215, 4α-Isovaleryloxy-8-methoxy-3,10-dimethyl-2,9-dioxatricyclo[4.3.1.0^3,7]decane], the “dose producing ptosis relative to the 4-hydroxy compound (in words)” value in [4] (compared with Compound No. 1561) is given as “one-fourth or one-half of the dose required of the 4-hydroxy-compound”. For the same compound, in series [4], the F ptosis test is 50 milligrams per kilogram of bod. Besides, the LD50 in series [2] (setting [12]) is > 1470 mg/kg. For the same compound, the minimal effective dose in [7] was 200 mg/kg.
Turning to `C=CCNC(=O)OC1CC2C(C)C3OC(OC)C2C1(C)O3` (stereo not drawn) [Compound No. 2274, 4α-(N-Allylcarbamyloxy)-8-methoxy-3,10-dimethyl-2,9-dioxatricyclo[4.3.1.0^3,7]decane], the ED50 in series [8] stood at 62.5 mg/kg; in series [9] it was 75 mg/kg. For the same compound, the LD50 in series [2] (setting [14]) was determined as 279 mg/kg; in series [2] (setting [15]), 339 mg/kg.
In the same order, the values of `C=CCNC(=O)OC1CC2C(=C)C3OC(OC)C2C1(C)O3` (stereo not drawn) [Compound No. 2286, 4α-(N-Allylcarbamyloxy)-8-methoxy-3-methyl-10-methylene-2,9-dioxatricyclo[4.3.1.0^3,7]decane] are 50 mg/kg, 112 mg/kg, 444 mg/kg and 970 mg/kg.
Consider `C=C1C2OC(OC)C3C1CC(OC(=O)CC(C)C)C3(C)O2` (stereo not drawn) [Compound No. 2295, 4α-Isovaleryloxy-8-methoxy-3-methyl-10-methylene-2,9-dioxatricyclo[4.3.1.0^3,7]decane], for which the median lethal dose (LD50) in series [2] (setting [12]) is > 1470 mg/kg. In [7], the “dose required to produce a lowering of the rectal temperature, relative to the 4-hydroxy compound (in words)” value was “smaller” and the minimal effective dose turned out to be 100 mg/kg.
In the case of `COC1OC2OC3(C)C(OC(=O)NC4CCCCC4)CC(C2C)C13` (stereo not drawn) [Compound No. 2365, 4α-(N-Cyclohexylcarbamyloxy)-8-methoxy-3,10-dimethyl-2,9-dioxatricyclo[4.3.1.0^3,7]decane], the ED50 is 137 mg/kg in series [8] and 150 mg/kg in series [9]. Also, the values for the LD50 in series [2] (setting [14]) and in [2] (setting [15]) were 832 mg/kg and 1470 mg/kg, respectively.
As to `CCNC(=O)OC1CC2C(C)C3OC(OCC)C2C1(C)O3` (centres unmarked) [compound 2157], the LD50 in [2] (setting [10]) amounted to 527 mg/kg; in series [2] (setting [11]) it was 1470 mg/kg. Also, in series [6] (setting [13]), the ED50 turned out to be 100 mg/kg.
With `C=C1C2OC(OCC)C3C1CC(OC(=O)NCC)C3(C)O2` (centres unmarked) [compound 2179], the LD50 worked out at 802 mg/kg in series [2] (setting [10]) and 944 mg/kg in series [2] (setting [11]). Further, the ED50 in series [6] (setting [13]) is < 100 mg/kg. The minimal effective dose in series [3] is < 100 mg/kg.
Consider `C=C1C2OC(OC)C3C1CC(OC(=O)NC)C3(C)O2` (centres unmarked) [compound 2504], for which the ED50 in [8] worked out at 200 mg/kg. Moreover, the LD50 was determined as 492 mg/kg in series [2] (setting [14]) and 528 mg/kg in series [2] (setting [15]).
